In patent US20150335678A1, “METHOD OF ACTIVATING STEM CELLS IN AN ANIMAL AND THE USE OF CHLORINE DIOXIDE FOR PREPARING MEDICINES FOR ACTIVATING STEM CELLS IN AN ANIMAL” (priority 2012, published 2015):

What was measured:
gastric ulcer = experiment: hp-positive gastric ulcer patients: symptoms and ulcer healing by gastroscopy (Example 11); assay type: in vivo, human
Description: The subjects consisted of 90 gastric ulcer patients (50 male and 40 female) of hp-positive aged from 33 to 75 years old (average age: 41 years old). The subjects were randomly assigned to treatment group and control group with 30 patients in treatment group and 30 in control group 1 and 30 in control group 2 respectively.
Allow the solution to mix for 3-5 minutes. The capsule that containing activating agent of stem cells was made by injecting the mixed solution into the soft capsule of number 0.
The capsule that containing activating agent of stem cells was administered to the patients in treatment group three times a day and a pill each time; 30 minutes before meals, patients in control group 1 took orally 15 mg colloidal bismuth and 100 mg pectin tinidazole for three times a day. And 20 mg Omeprazole two times a day; patients in control group 2 took orally […] amoxicillin and 500 mg clindamycin three times a day and 20 mg esomeprazole twice a day before meals. Both groups were administered for a consecutive week. To observe the improvement of the clinical symptoms of the three cases two weeks after administration, such as stomachache, nausea and sour regurgitation. Gastroscopy and urease test of gastric antral mucosa were conducted after 30 days to observe ulcer healing and eradication of hp.
Criteria for measuring the effects: the changes of conditions before and after treatment and the time the symptoms disappear were recorded precisely. Diagnostic criteria are the followings: 1) complete healing: the symptoms disappear, such as ache, heartburn, nausea, sour regurgitation, abdominal distention; cure of ulceration under a gastroscope and the inflammation is gone; H pylori is negative. 2) Almost healing: subjective symptom disappear, and more than 90% ulceration are healed and the inflammation around is gone. 3) Effective: more than half of the ulcer surface shrink or more than half of ulceration reduced; 4) Ineffective: less than half of the ulceration are healed or haven't been changed, or even the ulcer surface or ulceration increase. To conduct rapid urease test by taking one sample of gastric mucosa at antrum of stomach and gastric body respectively, if the results are negative, it means Hp negative conversing.

wound = details: clinical trial report No. NCT01341041, Rhode Island Hospital; cited from earlier work
scar = experiment: Patients with scar, topical solution with dimethyl sulfoxide (Example 13); assay type: in vivo, human; details: 20 patients with scar
Source text: The subjects consisted of 20 patients with scar, including 7 male and 13 female (average age: 33 years old.) There are five cases with burn scar, 7 cases with scars resulting from accidental injury, 5 cases with surgical scar, 3 cases with scar from skin disease. The average course of disease is about 3 years.
Then the solution was immediately smeared over the scar, once a day for 10-15 days consecutively then stops administration. The second administration began 1-2 months after drug withdrawal of the first administration, once a day for consecutive 5-10 days.
To observe the effects a month after first administration and second administration. The effects were measured according to pain, stiffness and hyperpigmentation around.
specific criteria: obvious pain (+++), moderate pain (++), mild pain (+) no pain (−). stiffness of scar: can't sunken with hard pressing, (+++) can sunken with moderate pressing, (++), complete depression with mild pressing (+). Same character with normal skin (−). hyperpigmentation around: >2 cm, (+++), 1˜2 cm (++), <1 cm (+), 0 (−)
Measurement of clinical effect: excellent: no pain, and the stiffness is the same to normal skin with no hyperpigmentation around. effective: the indicators of pain, stiffness and hyperpigmentation are (+)˜(++); ineffective: one of the indicators of pain, stiffness and hyperpigmentation is (+++).

localized psoriasis = experiment: Localized psoriasis patients, cure and recurrence vs cream control (Example 8); assay type: in vivo, human
Source text: The subjects consisted of 86 patients with localized psoriasis aged from 28 to 68 years old, among which 43 patients were randomly assigned to treatment group, and 43 to control group. The disease broke out continuously with more than nine months of course of disease. The purpose of the clinical test was explained to all subjects and their consent was obtained before conducting the clinical test. Treatment group: 29 male patients (74.36%), 10 female (25.64%); age (49.05±14.57); course of disease (12±9) years. Control group: 28 male patients (68.29%), 13 female patients (31.71%); age (47.05±16.25); course of disease (12±10) years.
The solution was immediately smeared over the affected region, once a day for 10 to 15 days, and then stop administration. If it relapsed, reusing it again. […] If it relapsed, reusing it again. The due time was six months.
The criteria for measuring the effect: Take PASI as reference.
A. The areas: grading from 0 to 6 for the four body parts respectively: area: 0=no rash;
B. Severity of the clinic: erythema; infiltration; scale. Grading each characteristics from 0 to 4 point; 0=no; 1=mild; 2=moderate; 3=severe; 4=extremely severe. Calculating the grades of each parts and working out the total points. The criteria of the effect (PASI decrease percentage): recovery score: ≧95%; excellent score both ≧61% and <95%; improved score both ≧20% and <60%; No effect score<20%.
The example was enumeration data and a Chi-square test was conducted to compare the cure rate and recurrence rate of the two groups.

[1] = a month after first administration
[2] = a month after second administration
[3] = after 6 months, 43 patients per group
[4] = follow-up average 6 months, 35 treatment, 32 control patients

## [O][Cl+][O-] [chlorine dioxide solution, chlorine dioxide]
Gastric ulcer; 30 hp-positive gastric ulcer patients per group, administered for a consecutive week, test capsule NaClO2 20%/NaCl 5% + citric acid 30% 1:1, one pill three times a day
  Symptoms disappear after a week (No.): 30
Gastric ulcer; 30 patients per group
  Effective after 30 d (%): 3.3%
  Healing after 30 d (%): 3.3%
Gastric ulcer; 30 patients per group, administered for a consecutive week
  Symptoms disappear after a week (%): 100%
Gastric ulcer; 30 patients per group, almost healing: more than 90% ulceration healed
  Healing after 30 d (No.): 1
Gastric ulcer; 30 patients per group, gastroscopy
  Complete healing after 30 d (%): 93.3%
Gastric ulcer; 30 patients per group, gastroscopy, administered for a consecutive week
  Complete healing after 30 d (No.): 28
Gastric ulcer; 30 patients per group, more than half of ulcer surface shrink
  Effective after 30 d (No.): 1
wound
  effects compared with normal saline in wound irrigation: promote healing and reduce scar formation
scar; [1]
  ineffective (%): 25%
  ineffective (No.): 5
  total efficiency (%): 30%
  total efficiency (No.): 6
scar; a month after first administration, NaClO2 10%/NaCl 2.5% + citric acid 20% 1:1, DMSO 1:1, smeared once a day 10-15 days
  Efficiency rate (No.): 9
scar; a month after first administration, topical with DMSO
  Efficiency rate (%): 45%
scar; a month after second administration (once a day 5-10 days, 1-2 months after the first)
  Efficiency rate (No.): 15
scar; [2]
  Efficiency rate (%): 75%
  ineffective (No.): 0
  total efficiency (%): 25%
  total efficiency (No.): 5
Localized psoriasis; [3]
  No. effective patients: 0 (0) ^
  No. ineffective patients: 0 (0)
  effective patients percentage: 0 (0) ^ %
  improvement Percentage: 4.6%
  ineffective patients percentage: 0 (0) %
Localized psoriasis; after 6 months, 43 patients per group, smeared once a day 10 to 15 days, repeated on relapse, at most three treatments, test solution NaClO2 10%/NaCl 2.5% + citric acid 22% 1:1, PASI-based
  No. Cure: 41
Localized psoriasis; after 6 months, 43 patients per group, topical once a day 10 to 15 days, repeated on relapse, P<0.01 between groups
  Cure Percentage: 95.3%
Localized psoriasis; [4]
  No. non recurrence patients: 33
  non recurrence patients percentage: 94.3%
Localized psoriasis; follow-up average 6 months, 35 treatment, 32 control patients followed
  No. recurrence patients: 2
Localized psoriasis; follow-up average 6 months, 35 treatment, 32 control patients, P<0.01 between groups
  recurrence patients percentage (recurrence rate): 5.7%
